Data as given in ChEMBL document CHEMBL1649323, “Easy strategy to protect antimicrobial peptides from fast degradation in serum” (Antimicrob Agents Chemother, 2010).
In brackets after ≈: the same amount, converted by molar mass.

Legend:
Staphylococcus aureus = experiment: Antimicrobial activity against Staphylococcus aureus ATCC 25923 by broth microdilution method; format: functional
Pseudomonas aeruginosa = experiment: Antimicrobial activity against Pseudomonas aeruginosa PAO1 H103 by broth microdilution method; format: functional
[1] = Half life in mouse serum; format: ADME, cell-free

Row | MIC (Staphylococcus aureus) [µg/mL] | MIC (Pseudomonas aeruginosa) [µg/mL] | half-life [1] [h] | Compound
1 | 1 (≈ 0.587 µM) | 2 (≈ 1.17 µM) |  | CC[C@H](C)[C@H](NC(=O)[C@H](CNC(=N)N)NC(=O)[C@H](Cc1c[nH]c2ccccc12)NC(=O)[C@H](CNC(=N)N)NC(=O)[C@H](CNC(=N)N)NC(=O)[C@@H](C)N)C(=O)N[C@H](C(=O)N[C@H](C(=O)N[C@H](C(=O)N[C@@H](CNC(=N)N)C(=O)N[C@H](C(=O)N[C@@H](CNC(=N)N)C(=O)N[C@@H](CNC(=N)N)C(=O)N[C@H](Cc1cnc[nH]1)C(N)=O)C(C)C)[C@@H](C)CC)C(C)C)C(C)C
2 | 1 (≈ 0.534 µM) | 2 (≈ 1.07 µM) |  | CC[C@H](C)[C@H](NC(=O)[C@H](CCCNC(=N)N)NC(=O)[C@H](Cc1c[nH]c2ccccc12)NC(=O)[C@H](CCCNC(=N)N)NC(=O)[C@H](CCCNC(=N)N)NC(=O)[C@@H](C)N)C(=O)N[C@H](C(=O)N[C@H](C(=O)N[C@H](C(=O)N[C@@H](CCCNC(=N)N)C(=O)N[C@H](C(=O)N[C@@H](CCCNC(=N)N)C(=O)N[C@@H](CCCNC(=N)N)C(=O)N[C@H](Cc1cnc[nH]1)C(N)=O)C(C)C)[C@@H](C)CC)C(C)C)C(C)C
3 | 1 | 2 | 1 | H-RRWRIVVIRVRR-NH2
